Laboratory results published in publication PMC6386909, “Dasatinib/HP-β-CD Inclusion Complex Based Aqueous Formulation as a Promising Tool for the Treatment of Paediatric Neuromuscular Disorders” (International Journal of Molecular Sciences, 2019).
Values joined by “and” are separate entries in the source; they are usually repeats but may differ in a detail not shown here. Equal entries are not always repeated.

How the values were obtained:
[1] = DAS solubility at 25 °C in different environments; assay type: physicochemical; settings: pH 6, Water (ultrapure, pH about 6.0)
Procedure: (§1) The phase solubility study was conducted in accordance with Higuchi and Connors. In detail, DAS was added in excess to an aqueous solution containing HP-β-CD in the appropriate concentration (0–10% w/v) until saturation and the suspensions thus obtained were placed in 4 mL vials with screw cap to avoid changes that are caused by evaporation. The obtained mixtures were vortexed for about 5 min and then placed in a thermostat bath at 25 °C for three days.
(§2) Subsequently, an aliquot of the aqueous phase of each mixture was transferred into a 5 mL glass syringe and filtered through a 0.22 μm cellulose acetate membrane filter (Millipore®, Milan, Italy).
(§3) The obtained filtrate was suitably diluted and subjected to subsequent HPLC analysis for the quantification of the drug. All of the determinations were conducted in triplicate.

[2] = Phase solubility study of DAS with HP-β-CD in water (Higuchi-Connors); assay type: physicochemical; settings: 25 °C
Procedure: as §1, §2, §3
The obtained data were used to determine the apparent stability 1:1 constant (K1:1) of the DAS/HP-β-CD inclusion complex, using the slope of the phase solubility diagrams straight line, as reported by Higuchi and Connors in the following equation:(1) K1:1=slope/S0(1−slope) where S0 represents DAS solubility in absence of cyclodextrin determined in the same way.

[3] = design: method as in PMID 26604135; settings: cited from earlier work
[4] = known values, no reference given; cited from earlier work
Src-TK = system: Src-TK; design: method as in PMID 25658745; settings: cited from earlier work
C2C12 cells = assay: Cytotoxicity / cell viability (CCK-8); assay type: cell-based, murine; settings: C2C12 myoblasts, 0.1–100 μM, 5 h treatment
Procedure: C2C12 myocytes were cultured in DMEM that was supplemented with 10% fetal bovine serum, 1% penicillin, 1% streptomycin and 1% glutamine and were maintained at 37 °C in 5% CO2/95% air. Cell viability was evaluated by measuring the succinic dehydrogenases activity in the cell suspension using the cell counting Kit-8 (CCK-8) (Sigma Aldrich), which utilizes a highly water-soluble tetrazolium salt and whose detection sensitivity is higher than other tetrazolium salts.
Cells were seeded in 96-well cultures at a density of approximately 4.5 × 10^3 cells per well and then cultured for 16 h. Afterwards, the cells were treated for 5 h with free DAS (in DMSO <0.15% in order to ensure cellular vitality) or complexed with HP-β-CD, but at the same concentration calculated on the basis of the incorporation degree, both being dissolved in DMEM. Following exposure, 10 μL of CCK-8 were added into each well and then the plate was incubated for additional two hours. The absorbance at 450 nm was measured using a spectrophotometer (microplate reader Victor V31420–40; PerkinElmer, Wellesley, Massachusetts). […] The results are expressed as the percentage of the control and presented as the mean ± SD. Each data is from 24–48 replicates (wells) and 6–9 different culture dishes.

cancer cell growth = settings: no reference given; cited from earlier work
[5] = Dissolution studies at 37 °C (BIODIS USP III apparatus); assay type: physicochemical; settings: HCl 0.05 M pH 1.2, 37 °C, after approximately 420 min
Procedure: Dissolution experiments were performed at 37 °C using a BIODIS USP III apparatus (Varian Inc., Cary North Carolina, CA, USA), equipped with a rod stirrer maintaining a rotational speed of 100 rpm during the test. Samples of DAS or DAS/HP-β-CD solid complex, equivalent to about 2 mg of DAS, were suspended in the dissolution medium (80 mL of 0.05 M phosphate buffer at pH 7.4 or HCl 0.05 M pH = 1.2). The volume of 80 mL was chosen taking into account the HPLC quantification limit for the determination of DAS.
At predetermined time intervals, 600 µL of suspension were collected and, in order to keep constant the initial volume, 600 μL of the same dissolution medium previously thermostated at the same temperature were added. Samples were subsequently filtered using a 0.22 µm membrane filter (Millipore® cellulose acetate), and the filtrates thus obtained were subjected to HPLC analysis after appropriate dilution. For quantitative analysis the calibration curve previously constructed was used and the dissolution profiles shown correspond to the average of three determinations.

[6] = Pharmacokinetic analysis of DAS in quadriceps and liver after oral treatment; assay type: in vivo, C57Bl/6J mice; settings: DAS/HP-β-CD inclusion complex 15 mg/kg in drinking water for 1 week, WT mice
Procedure: A total of 10 sedentary WT male mice C57Bl/6J (Charles River, Italy for Jackson Laboratories), homogeneous for age and body weight (BW) were divided into 2 groups as follows: 4 WT mice vehicle-treated (HP-β-CD 10%) and 6 WT mice treated with DAS/HP-β-CD inclusion complex at the dose of 15 mg/Kg. Drug and vehicle were administered in drinking water for 1 week.
In detail, analysis was performed in quadriceps (Quad) and livers of treated animals. Tissues were individually weighed into a "FastPrep" tube and PBS was added (3:1 ratio). Each tube was placed in the fast prep homogenizer on a predetermined 1min cycle to ensure complete homogenization. 40 µL of each homogenate was aliquoted to a fresh tube and 50 µL of MeOH plus 150 µL of Methanol-containing Internal standard (25 ng/mL Imipramine HCl) was added. Each sample was mixed on a Bioshake for 1 min and then transferred to the freezer at −20 °C for at least two hours prior centrifugation at 2500 × g for 20 min. The supernatants were then transferred to a 96-well plate for sampling by the LC-MS/MS. A Thermo TSQ Quantiva with Thermo Vanquish UHPLC system was used (Thermo Fisher Scientific Inc, Milan, Italy). […] Quantitative analysis was conducted by MRM at 232.06 to 401.11 m/z for DAS inclusion complex and at 86.10 to 193.04 m/z for the internal standard Imipramine. […]

**Q.** For `Cc1nc(Nc2ncc(C(=O)Nc3c(C)cccc3Cl)s2)cc(N2CCN(CCO)CC2)n1` [DAS, N-(2-chloro-6-methylphenyl)-2-[[6-[4-(2-hydroxyethyl)piperazin-1-yl]-2-methylpyrimidin-4-yl]amino]-1,3-thiazole-5-carboxamide], which solubility at 3 days ([1]; read-out: DAS Solubility) is on record?
**A.** 1.33 µM

**Q.** What about the solubility at 3 days ([1]; read-out: DAS Solubility (mg/mL)) of the same compound?
**A.** 0.000649 mg/mL

**Q.** What about the “1:1 apparent formation (complexation) constant K1:1” value ([2]; DAS with HP-β-CD, from linear portion (0–6% HP-β-CD) of the phase solubility diagram) of the same compound?
**A.** 922.13 M⁻¹

**Q.** What about the solubility at 3 days ([2]; aqueous HP-β-CD solution, aqueous with cosolvent or surfactant or cyclodextrin, thermodynamic from solid, 6% w/v of HP-β-CD, read-out: DAS aqueous solubility in the presence of HP-β-CD) of the same compound?
**A.** 29 µM and 14 µg/mL

**Q.** What about the pKa [3] of the same compound?
**A.** 10.28

**Q.** And the therapeutic plasma levels [4]?
**A.** low µM values

**Q.** What about the “inhibition of Src-TK, concentration range” value (Src-TK) of the same compound?
**A.** nanomolar range

**Q.** And the “cytotoxic effect on cell viability” value (C2C12 cells)?
**A.** cytotoxic only at high concentrations

**Q.** What about the “IC50 values known to inhibit cancer cell growth” value (cancer cell growth) of the same compound?
**A.** nM range

**Q.** And the “quantity of drug dissolved” value [5]?
**A.** approximately 81%

**Q.** What about the “DAS levels in quadriceps and livers” value [6] of the same compound?
**A.** Appreciable drugs’ levels were found in quadriceps and livers
